Each compound was assayed against human P2X3 receptor (Homo sapiens (Human), UniProt P56373) (assay: Evaluation of human P2X3 receptor inhibitory activity (Fluo-3 calcium fluorescence, FDSS 3000, ATP stimulation)). Details: C6BU-1 cells stably expressing human P2X3 receptor.
Chain of human P2X3 receptor (P56373 whole entry): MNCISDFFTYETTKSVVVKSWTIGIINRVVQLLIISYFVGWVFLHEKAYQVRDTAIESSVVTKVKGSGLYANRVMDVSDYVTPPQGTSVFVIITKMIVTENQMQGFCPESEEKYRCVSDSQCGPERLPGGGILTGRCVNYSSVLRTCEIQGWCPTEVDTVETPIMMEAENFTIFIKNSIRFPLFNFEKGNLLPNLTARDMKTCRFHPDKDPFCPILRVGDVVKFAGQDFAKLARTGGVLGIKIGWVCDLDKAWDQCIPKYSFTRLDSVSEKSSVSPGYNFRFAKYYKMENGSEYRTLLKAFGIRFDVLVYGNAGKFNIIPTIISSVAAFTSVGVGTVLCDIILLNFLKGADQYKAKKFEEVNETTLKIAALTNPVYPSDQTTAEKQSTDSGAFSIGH
Assay type: cell-based
`COC(=O)C(C)(C)Cn1c(=O)[nH]/c(=N\c2ccc3c(c2)cc(C)n3C)n(Cc2ccc(Cl)cc2)c1=O` [Compound I-0597] was tested, and the IC50 was 507 nM. `COC(=O)[C@@H](C)Cn1c(=O)[nH]/c(=N\c2ccc(CC#N)c(Cl)c2)n(Cc2ccc(Cl)cc2)c1=O` [Compound I-0766] showed an IC50 of 438 nM. `Cc1cc2cc(/N=c3\[nH]c(=O)n(CCCOC4CCCCO4)c(=O)n3Cc3ccc(Cl)cc3)ccc2o1` (stereo not drawn) [Compound I-2025] showed an IC50 of 5 nM. `CCCn1c(=O)[nH]/c(=N\c2ccc(Oc3ccnc(C(=O)OC)c3)cc2)n(Cc2ccc(Cl)cc2)c1=O` [Compound I-2160] showed an IC50 of 3 nM. For `CC(C)Oc1ccc(/N=c2\[nH]c(=O)n(CC(=O)NC(CO)CO)c(=O)n2Cc2ccc(Cl)cc2)cc1Cl` [Compound I-0665], the IC50 was 4 nM. Work on `CCn1c(=O)[nH]/c(=N\c2ccc(Oc3cccc4ocnc34)c(Cl)c2)n(Cc2ccc(Cl)cc2)c1=O` [Compound I-2195] yielded an IC50 of 14 nM. With `CCn1c(=O)[nH]/c(=N\c2ccc3oc(C)c(CCO)c3c2)n(Cc2ccc(Cl)cc2)c1=O` [Compound I-2171] the IC50 was 296 nM. For `CCOC(=O)CCn1c(=O)[nH]/c(=N\c2ccc(OC(C)C)c(OC)c2)n(Cc2ccc(Cl)cc2)c1=O` [Compound I-1248], the IC50 was 6 nM. `Cc1cc2cc(/N=c3\[nH]c(=O)n(C[C@H](C)C(=O)O)c(=O)n3Cc3ccc(Cl)cc3)ccc2[nH]1` [Compound I-0697] was tested, and the IC50 was 57 nM. For `CCCCc1ccc(/N=c2\[nH]c(=O)n(C[C@H](C)C(=O)O)c(=O)n2Cc2ccc(Cl)cc2)cc1` [Compound I-0624], the IC50 was 42 nM. Compound `Cc1cc(/N=c2\[nH]c(=O)n(C[C@H](C)C(=O)O)c(=O)n2Cc2ccccc2)ccc1OC(C)C` [Compound I-0795] has an IC50 of 724 nM. `CCCCOc1ccc(/N=c2\[nH]c(=O)n(C[C@H](C)C(=O)O)c(=O)n2Cc2ccc(C)cc2)cc1` [Compound I-0820] gave an IC50 of 35 nM. `O=C(O)Cn1c(=O)[nH]/c(=N\c2ccc(Oc3ccnc(O)c3)cc2)n(Cc2ccc(Cl)cc2)c1=O` [Compound I-1932] showed an IC50 of 95 nM. In the case of `O=C(O)c1cc(Oc2ccc(/N=c3\[nH]c(=O)n(CCO)c(=O)n3Cc3ccc(Cl)cc3)cc2)no1` [Compound I-2117], the IC50 is reported as 23 nM. In the case of `Cc1cc(/N=c2\[nH]c(=O)n(CC3(C(=O)O)CC3)c(=O)n2Cc2ccc(Cl)cc2)ccc1OC(C)C` [Compound I-0698], the IC50 is reported as 26 nM. `CC(C)Oc1ccc(/N=c2\[nH]c(=O)n(C(C)(C)C(=O)NC(CO)CO)c(=O)n2Cc2ccc(Cl)cc2)cc1Cl` [Compound I-0687] gave an IC50 of 12 nM. `COC(=O)c1ccc(Cn2c(=O)[nH]/c(=N\c3ccc(OC(C)C)c(C)c3)n(Cc3ccc(Cl)cc3)c2=O)o1` [Compound I-0700] showed an IC50 of 6 nM. For `CCCCOc1ccc(/N=c2\[nH]c(=O)n(C[C@H](C)C(=O)OC)c(=O)n2Cc2ccc(Cl)cc2)cc1` [Compound I-0814], the IC50 was 17 nM. `COC(=O)[C@H](C)[C@H](C)n1c(=O)[nH]/c(=N\c2ccc(OC(C)C)c(C)c2)n(Cc2ccc(Cl)cc2)c1=O` [Compound I-0809] showed an IC50 of 34 nM. `CCn1c(=O)[nH]/c(=N\c2ccc(Oc3ccc(F)c(C(=O)O)c3)cc2)n(Cc2ccc(Cl)cc2)c1=O` [Compound I-2066] showed an IC50 of 23 nM. In the case of `COC(=O)CCCCn1c(=O)[nH]/c(=N\c2ccc3nc(C)sc3c2)n(Cc2ccc(C)cc2)c1=O` [Compound I-2155], the IC50 is reported as 4 nM. For `COC(=O)[C@H](C)[C@H](C)n1c(=O)[nH]/c(=N\c2ccc(CC(C)C)c(Cl)c2)n(Cc2ccc(C)cc2)c1=O` [Compound I-1436], the IC50 was 54 nM. Work on `CC(C)Oc1ccc(/N=c2\[nH]c(=O)n(CCC(=O)O)c(=O)n2CC2CCC3(CC2)CC3)cc1Cl` [Compound I-1461] yielded an IC50 of 25 nM. Work on `COC(=O)[C@@H](C)[C@@H](C)n1c(=O)[nH]/c(=N\c2ccc(OC3CCC3)cc2)n(Cc2ccc(C)cc2)c1=O` [Compound I-1453] yielded an IC50 of 13 nM.

Same assay, conditions: C6BU-1 cells stably expressing human P2X3 receptor, Fluo-3 fluorescence, FDSS 3000
In the case of `C[C@@H](Cn1c(=O)[nH]/c(=N\c2ccc(CC3CCCC3)cc2)n(Cc2ccc(Cl)cc2)c1=O)C(=O)O` [Compound I-1101], the IC50 is reported as 53 nM. `Cc1nc2ccc(/N=c3\[nH]c(=O)n(CC(C)(C)C(=O)O)c(=O)n3Cc3ccc(Cl)cc3)cc2s1` [Compound I-1576] showed an IC50 of 8 nM. In the case of `COC(=O)[C@@H](C)Cn1c(=O)[nH]/c(=N\c2ccc(C3=CCCC3)cc2)n(Cc2ccc(C)cc2)c1=O` [Compound I-1083], the IC50 is reported as 125 nM. With `Cc1nc2ccc(/N=c3\[nH]c(=O)n(C)c(=O)n3Cc3ccc(Cl)cc3)cc2s1` [Compound I-1737] the IC50 was 19 nM. `CCc1nc2ccc(/N=c3\[nH]c(=O)n(CCC(N)=O)c(=O)n3Cc3ccc(Cl)cc3)cc2s1` [Compound I-1768] was tested, and the IC50 was 6 nM. For `COC(=O)[C@@H](C)Cn1c(=O)[nH]/c(=N\c2cccc(C3CCCC3)c2)n(Cc2ccc(C)cc2)c1=O` [Compound I-1089], the IC50 was 487 nM. Compound `CCc1nc2ccc(/N=c3\[nH]c(=O)n(CCCC(=O)O)c(=O)n3Cc3ccc(C)cc3)cc2s1` [Compound I-1631] has an IC50 of 8 nM. For `CCOC(=O)CCn1c(=O)[nH]/c(=N\c2ccc(OCC(C)(C)C)cc2)n(Cc2ccc(C)cc2)c1=O` [Compound I-1056], the IC50 was 177 nM. `CCOC(=O)CCn1c(=O)[nH]/c(=N\c2ccc(O[C@H](C)CC)cc2)n(Cc2ccc(C)cc2)c1=O` [Compound I-1018] gave an IC50 of 8 nM. In the case of `CCOC(=O)CCn1c(=O)[nH]/c(=N\c2ccc(Oc3ccc(F)cc3)cc2)n(Cc2ccc(Cl)cc2)c1=O` [Compound I-1872], the IC50 is reported as 15 nM. In the case of `CCCCCOc1ccc(/N=c2\[nH]c(=O)n(C[C@H](C)C(=O)OC)c(=O)n2Cc2ccc(C)cc2)cc1` [Compound I-1057], the IC50 is reported as 89 nM. Compound `CCOC(=O)CCn1c(=O)[nH]/c(=N\c2ccc(OCCC(C)C)cc2)n(Cc2ccc(C)cc2)c1=O` [Compound I-1055] has an IC50 of 91 nM. For `CCc1nc2ccc(/N=c3\[nH]c(=O)n(CCCO)c(=O)n3Cc3ccc(Cl)cc3)cc2s1` [Compound I-1622], the IC50 was 4 nM. With `Cc1ccc(Oc2ccc(/N=c3\[nH]c(=O)n(CCCO)c(=O)n3Cc3ccc(Cl)cc3)cc2)cn1` [Compound I-1597] the IC50 was 4 nM. In the case of `CC(C)Oc1ccc(/N=c2\[nH]c(=O)n(CC3(C(=O)O)COC3)c(=O)n2Cc2ccc(Cl)cc2)cc1Cl` [Compound I-1011], the IC50 is reported as 21 nM. For `Cc1ccc(Cn2c(=O)n(C[C@H](C)C(=O)O)c(=O)[nH]/c2=N\c2ccc(Oc3ccccc3)cc2)cc1` [Compound I-0992], the IC50 was 24 nM. For `COC(=O)[C@@H](C)Cn1c(=O)[nH]/c(=N\c2ccc(Oc3ccccc3)cc2)n(Cc2ccc(C)cc2)c1=O` [Compound I-0990], the IC50 was 51 nM. For `COC(=O)[C@@H](C)Cn1c(=O)[nH]/c(=N\c2ccc(OC(C)C)c(OC)c2)n(Cc2ccc(C)cc2)c1=O` [Compound I-1129], the IC50 was 11 nM. For `COC(=O)[C@@H](C)Cn1c(=O)[nH]/c(=N\c2ccc(OC3CCCC3)nc2)n(Cc2ccc(C)cc2)c1=O` [Compound I-1185], the IC50 was 116 nM.

Same assay, conditions: human P2X3 receptor, Test Example 1
For `O=c1[nH]/c(=N\c2ccc(Oc3ncns3)cc2)n(Cc2ccc(Cl)cc2)c(=O)n1C[C@H](O)CO` [Compound I-2519], the IC50 was 4 nM. For `COc1ccc(Oc2ccc(/N=c3\[nH]c(=O)n(C[C@H](C)C(=O)O)c(=O)n3Cc3ccc(C)cc3)cc2)cn1` [Compound I-1534], the IC50 was 5 nM. Compound `CCn1c(=O)[nH]/c(=N\c2ccc(Oc3cccc(C(=O)OC)n3)cc2)n(Cc2ccc(Cl)cn2)c1=O` [Compound I-2238] has an IC50 of 148 nM. Work on `Cn1c(=O)[nH]/c(=N\c2ccc(Oc3cc(C(=O)O)n[nH]3)cc2)n(Cc2ccc(Cl)cc2)c1=O` [Compound I-2411] yielded an IC50 of 166 nM. For `Cc1nsc(Oc2ccc(/N=c3\[nH]c(=O)n(CC(=O)NCCO)c(=O)n3Cc3ccc(Cl)cc3)cc2)n1` [Compound I-2678], the IC50 was 3 nM. `COC(=O)CCn1c(=O)[nH]/c(=N\c2ccc(Oc3cccc(F)n3)cc2)n(Cc2ccc(Cl)cc2)c1=O` [Compound I-2650] was tested, and the IC50 was 3 nM. Work on `CCc1nc2ccc(/N=c3\[nH]c(=O)n(CCC(=O)O)c(=O)n3Cc3ccc(C)cc3)cc2s1` [Compound I-1510] yielded an IC50 of 13 nM. Compound `Cc1nsc(Oc2ccc(/N=c3\[nH]c(=O)n(CC(N)=O)c(=O)n3Cc3ccc(Cl)cc3)cc2)n1` [Compound I-2589] has an IC50 of 6 nM. With `Cc1cc(Oc2ccc(/N=c3\[nH]c(=O)n(C[C@H](O)CO)c(=O)n3Cc3ccc(Cl)cc3)cc2)n(C)n1` [Compound I-2371] the IC50 was 102 nM. In the case of `Cn1c(=O)[nH]/c(=N\c2ccc(Oc3cnc(C(N)=O)cn3)cc2)n(Cc2ccc(Cl)cc2)c1=O` [Compound I-2389], the IC50 is reported as 10 nM. `Cc1nsc(Oc2ccc(/N=c3\[nH]c(=O)n(CC(C)(CO)CO)c(=O)n3Cc3ccc(F)cc3)cc2)n1` [Compound I-2571] showed an IC50 of 7 nM. Work on `Cc1cnc(Oc2ccc(/N=c3\[nH]c(=O)n(C[C@H](O)CO)c(=O)n3Cc3ccc(Cl)cc3)cc2)s1` [Compound I-2513] yielded an IC50 of 6 nM. With `CC[C@@H](Cn1c(=O)[nH]/c(=N\c2ccc(OC(C)C)c(C)c2)n(Cc2ccc(Cl)cc2)c1=O)C(=O)OC` [Compound I-0887] the IC50 was 23 nM. `Cn1c(=O)[nH]/c(=N\c2ccc(Oc3ccc(C(N)=O)cn3)cc2)n(Cc2ccc(Cl)cc2)c1=O` [Compound I-2407] gave an IC50 of 9 nM. Compound `CO/N=C/c1ccc(/N=c2\[nH]c(=O)n(C[C@H](C)C(=O)O)c(=O)n2Cc2ccc(Cl)cc2)cc1F` [Compound I-0893, (S)-1-(4-chlorobenzyl)-6-(3-fluoro-4-methoxyiminomethylphenylimino)-3-(2-hydroxycarbonylpropyl)methyl-1,3,5-triazinane-2,4-dion] has an IC50 of 202 nM. `COC(=O)[C@@H](C)Cn1c(=O)[nH]/c(=N\c2ccc(OC(C)C)c(C)c2)n(Cc2ccc(Br)cc2)c1=O` [Compound I-0865] was tested, and the IC50 was 17 nM. Compound `Cc1ccc(Cn2c(=O)n(C)c(=O)[nH]/c2=N\c2ccc(Oc3nccc(C(=O)O)n3)cc2)cc1` [Compound I-2403] has an IC50 of 61 nM. In the case of `CO/N=C/c1ccc(/N=c2\[nH]c(=O)n(C[C@H](C)C(=O)OC)c(=O)n2Cc2ccc(Cl)cc2)cc1F` [Compound I-0881, (S)-1-(4-chlorobenzyl)-6-(3-fluoro-4-methoxyiminomethylphenylimino)-3-(2-methoxycarbonylpropyl)-1,3,5-triazinane-2,4-dion], the IC50 is reported as 127 nM. With `Cc1ccc(Cn2c(=O)n(CCC(=O)O)c(=O)[nH]/c2=N\c2ccc(Oc3ccc(C#N)cn3)cc2)cc1` [Compound I-2635] the IC50 was 8 nM. For `NC(=O)CCn1c(=O)[nH]/c(=N\c2ccc(Oc3ncccn3)cc2)n(Cc2ccc(Cl)cc2)c1=O` [Compound I-2565], the IC50 was 17 nM.
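Further: stimulus was 50 nM ATP with fluorescence followed for 3 min, and the response per well was peak post-ATP fluorescence divided by the reading at measurement start.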
